# Reference: patent publication US5032597A, “Method of using phenylquinolinecarboxylic acids and derivatives for lymthoid leukemia treatment in a mammal” (priority 1987, dated 1991)
# Experiments:
# L1210 leukemia = test: Lymphoid Leukemia L1210, survival of tumored mice; format: in vivo, CD2F1 mice; conditions: for response vs control in vivo at 50 mg/kg: 50 mg/kg i.p.
# Description: The efficacy of the compounds of this invention against the transplanted mouse tumors was evaluated in test systems currently in use at the National Cancer Institute for the detection and assessment of anticancer activity. […] J. Cancer, 17, 129-142, (1981); Venditti, J. M., Seminars in Oncology, 8 (4) (1981); Goldin, A. and J. M. Venditti, in Recent Results in Cancer Research, 70, S. K. Carter and Y. Sakurai, Eds., Springer-Verlag, Berlin/Heidelberg, 1980].
# The animals used in this test were CD2 F1 mice, all males weighing a minimum of 18 g and all within a 4 g weight range at the start of the test. The test group consisted of six mice. The tumor was implanted in each of the test mice by the intraperitoneal injection of 0.1 ml of diluted ascitic fluid containing 10^5 cells drawn from a mouse with L1210 leukemia. The test compounds were suspended in hydroxypropylcellulose or saline with Tween® 80 surfactant or dissolved in saline and injected intraperitoneally, at various doses, once daily for nine consecutive days starting on day one relative to the day of tumor inoculation (day 0). The control mice received injections of saline or hydroxypropylcellulose vehicle only. The mice were weighed and survivors were recorded on a regular basis for 30 days. The median survival time and the ratio of the median survival time for the treated (T) and control (C) mice was calculated. […] Drug effectiveness was assessed on the basis of the survival time. Results were expressed as a percentage of the control survival time (Median Survival Time: T/C ×100%). The criterion for effectiveness was determined by: T/C×100≥125 percent.
# [1] = test system: human colon carcinoma cells HCT-15; test: Human colon tumor test in vitro, HCT-15 cell growth inhibition; format: cell-based; conditions: HCT-15 cells, compound day 1 to day 4; for IC50: Homo sapiens, HCT-15, 72 h, read-out: in vitro HCT-15 ID50 (50 percent inhibition of number of doublings); for in vitro HCT-15 ID50 (50 percent inhibition of number of doublings): 4320 min
# Description: The compound of this invention were also tested for their ability to inhibit the growth of human colon carcinoma cells in vitro.
# The human colon carcinoma cells, designated HCT-15, were derived from a specimen of an adenocarcinoma of human colon removed during surgery. The cells were grown in Roswell Park Medical Institute (RPMI) Medium 1640 supplemented with 10% heat inactivated fetal calf serum, penicillin (100 units/ml), streptomycin (100 μg/ml), gentamicin (20 μg/ml), fungizone (25 μg/ml), 0.075 percent sodium bicarbonate, […] 4-(2-hydroxyethyl)-1-piperazineethanesulfonic acid and […] N-tris(hydroxymethyl)methylglycine. […] On day 1 cells from sample dishes were harvested using trypsin (0.25%) treatment and counted with a hemocytometer to determine the number of cells per dish at the time of the addition of the compounds. Compounds of this invention were added in varying concentrations to other cultures. On day 4, treated and control cultures were harvested by trypsin treatment and the number of cells was determined. The number of doublings for the control cells was determined from the cell numbers on days 1 and 4. The ID50, the concentration of compound required to inhibit by 50 percent the number of doublings, was then calculated from the dose-response curve in which cell numbers were plotted on log-log paper against compound concentrations in micrograms per ml.
# [2] = Mus musculus, L1210, ip, 720 h, read-out: L1210 Leukemia % T/C (median survival time)
smiles,measurement,setting,value
Cc1c(-c2ccc(Oc3ccc(Cl)cc3)cc2)nc2ccc(F)cc2c1C(=O)O [Example 29],L1210 Leukemia % T/C (median survival time),L1210 leukemia; 18 mg/kg i.p.,194%
same,IC50,[1],< 0.5 µg/mL
Cc1ccc(-c2ccc(-c3nc4ccc(F)cc4c(C(=O)O)c3C)cc2)cc1C [Example 39],IC50,[1],< 0.1 µg/mL
CCc1cccc(-c2ccc(-c3nc4ccc(F)cc4c(C(=O)O)c3C)cc2)c1 [Example 41],IC50,[1],0.0079 µg/mL
Cc1c(-c2ccc(C3CCCCC3)cc2)nc2c(Br)cc(Br)cc2c1C(=O)O [Example 46],IC50,[1],0.42 µg/mL
Cc1c(-c2ccc(-c3ccccc3)cc2)nc2cc(Cl)c(Cl)cc2c1C(=O)O [Example 47],IC50,[1],3.2 µg/mL
Cc1c(-c2ccc(C3CCCCC3)cc2)nc2ccc(C(F)(F)F)cc2c1C(=O)O [Example 48],IC50,[1],0.1 µg/mL
Cc1c(-c2ccc(-c3ccccc3F)cc2)nc2ccc(Cl)cc2c1C(=O)O [Example 70],IC50,[1],< 0.1 µg/mL
Cc1c(-c2ccc(-c3ccccc3)cc2)nc2cccc(Cl)c2c1C(=O)O [Example 80],IC50,[1],< 0.5 µg/mL
Cc1c(-c2ccc(-c3ccccc3F)cc2)nc2ccc(F)c(Cl)c2c1C(=O)O [Example 84],IC50,[1],< 0.1 µg/mL
Cc1ccc2nc(-c3ccc(-c4ccccc4)cc3)c(C)c(C(=O)O)c2c1 [Example 104],in vitro HCT-15 ID50 (50 percent inhibition of number of doublings),[1],0.22 µg/mL
Cc1c(-c2ccc(C3CCCCC3)cc2)nc2ccc(F)cc2c1C(=O)O [Example 169],in vitro HCT-15 ID50 (50 percent inhibition of number of doublings),[1],0.04 µg/mL
O=C(O)c1cc(-c2ccc(-c3ccccc3)cc2)nc2ccc(F)cc12 [Example 182],response vs control in vivo at 46 mg/kg,"L1210 leukemia; Mus musculus, L1210, ip, 720 h, 46 mg/kg i.p., read-out: L1210 Leukemia % T/C (median survival time)",168%
Cc1c(-c2ccc(-c3ccc(Br)cc3)cc2)nc2ccc(F)cc2c1C(=O)O [Example 183],response vs control in vivo at 22.5 mg/kg,"L1210 leukemia; Mus musculus, L1210, ip, 720 h, 22.5 mg/kg i.p., read-out: L1210 Leukemia % T/C (median survival time)",208%
Cc1c(-c2ccc(Oc3ccc([N+](=O)[O-])cc3)cc2)nc2ccc(F)cc2c1C(=O)O [Example 184],L1210 Leukemia % T/C (median survival time),L1210 leukemia; 175 mg/kg i.p.,153%
Cc1c(-c2ccc(-c3ccccc3)cc2)nc2ccc(I)cc2c1C(=O)O [Example 185],response vs control in vivo at 50 mg/kg,L1210 leukemia; [2],175%
Cc1c(-c2ccc(-c3ccccc3)cc2)nc2cc(F)ccc2c1C(=O)O [Example 186],response vs control in vivo at 45 mg/kg,"L1210 leukemia; Mus musculus, L1210, ip, 720 h, 45 mg/kg i.p., nonoptimal Q1DX9 instead of Q3DX9, read-out: L1210 Leukemia % T/C (median survival time)",123%
Cc1c(-c2ccc(-c3cccc(F)c3)cc2)nc2ccccc2c1C(=O)O [Example 190],response vs control in vivo at 50 mg/kg,L1210 leukemia; [2],195%
Cc1c(-c2ccc(-c3ccccc3)cc2)nc2ccc(F)cc2c1C(=O)OCCN(C)C [Example 196],response vs control in vivo at 50 mg/kg,L1210 leukemia; [2],205%
Cc1c(-c2ccc(-c3ccccc3F)cc2)nc2ccc(F)cc2c1C(=O)OCCCN(C)C [Example 199],response vs control in vivo at 25 mg/kg,"L1210 leukemia; Mus musculus, L1210, ip, 720 h, 25 mg/kg i.p., read-out: L1210 Leukemia % T/C (median survival time)",153%
Cc1c(-c2ccc(-c3ccccc3F)cc2)nc2ccc(F)cc2c1C(=O)OCCCN(C)C [Example 200],L1210 Leukemia % T/C (median survival time),L1210 leukemia; 25 mg/kg i.p.,140%
CCN(CC)CCOC(=O)c1c(C)c(-c2ccc(-c3ccccc3F)cc2)nc2ccc(F)cc12 [Example 202],response vs control in vivo at 59 mg/kg,"L1210 leukemia; Mus musculus, L1210, ip, 720 h, 59 mg/kg i.p., read-out: L1210 Leukemia % T/C (median survival time)",164%
Cc1c(-c2ccc(-c3ccccc3)cc2F)nc2ccc(F)cc2c1C(=O)O [Example 208],IC50,[1],< 0.001 µg/mL
